Results as given in article PMC10461224, “Development of an Affinity-Based Probe to Profile Endogenous Human Adenosine A3 Receptor Expression” (Journal of Medicinal Chemistry, 2023).
Marks after values point to notes of the source that are not given here.

Columns and labels:
Type in all cases: binding
human A2AAR (hA2AAR) = target: T1, human A2AAR (hA2AAR) (Homo sapiens, UniProt P29274); assay: Single-point radioligand displacement, [3H]ZM241385; conditions: 1 μM probe; HEK293 cell membranes; co-incubated with radioligand 30 min at 25 °C; mean of two experiments
T1 construct: expressed in transfected cells; host or cells: HEK293 cells (HEKhA2AAR), gift of Dr. J. Wang, Biogen; membrane fractions
T1 sequence (P29274 whole entry): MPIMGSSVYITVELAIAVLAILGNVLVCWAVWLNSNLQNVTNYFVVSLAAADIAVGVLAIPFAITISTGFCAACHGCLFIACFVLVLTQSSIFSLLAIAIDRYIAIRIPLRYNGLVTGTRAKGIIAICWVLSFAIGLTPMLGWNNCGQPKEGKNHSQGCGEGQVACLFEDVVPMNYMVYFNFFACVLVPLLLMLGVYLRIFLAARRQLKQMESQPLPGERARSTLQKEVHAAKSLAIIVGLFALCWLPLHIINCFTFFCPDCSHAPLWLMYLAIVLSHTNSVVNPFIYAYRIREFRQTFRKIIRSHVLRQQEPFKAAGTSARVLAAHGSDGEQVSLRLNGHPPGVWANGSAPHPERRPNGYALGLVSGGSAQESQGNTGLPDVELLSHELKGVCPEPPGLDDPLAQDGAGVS
Procedure: (§1) Membrane aliquots containing 15 μg (CHOhA3AR), 5 μg (CHOhA1AR), or 30 μg (HEK293hA2AAR and CHO-spap-A2BAR) of protein were resuspended in assay buffer (A3AR: 50 mM Tris–HCl, pH 8.0, 10 mM MgCl2, 1 mM EDTA, 0.01% CHAPS; A1AR and A2AAR: 50 mM Tris–HCl, pH 7.4; A2BAR: 50 mM Tris–HCl, pH 7.4, 0.1% CHAPS). […] Nonspecific binding was determined in the presence of 100 μM NECA (A3AR), 100 μM CPA (A1AR), 100 μM NECA (A2AAR), and 10 μM ZM241385 (A2BAR). Incubations were terminated by rapid vacuum filtration to separate the bound and free radioligand through prewetted 96-well GF/C filter plates using a PerkinElmer Filtermate harvester. Filters were subsequently washed 12 times with ice-cold wash buffer (A3AR: 50 mM Tris–HCl, pH 8.0, 10 mM MgCl2, 1 mM EDTA; A1AR and A2AAR: 50 mM Tris–HCl, pH 7.4; A2BAR: 50 mM Tris–HCl, pH 7.4, 0.1% BSA). The plates were dried at 55 °C, and MicroscintTM-20 cocktail (PerkinElmer) was added subsequently.
(§2) Single point displacement values shown are mean percentages of two individual experiments performed in duplicate. All pKi values shown are mean values ± SEM of three individual experiments performed in duplicate.

human A2BAR (hA2BAR) = target: T2, human A2BAR (hA2BAR) (Homo sapiens, UniProt P29275); assay: Single-point radioligand displacement, [3H]PSB-603; conditions: 1 μM probe; CHO-spap cell membranes; co-incubated with radioligand 30 min at 25 °C; mean of two experiments
T2 construct: expressed in transfected cells; host or cells: CHO-spap cells (CHO-spap-hA2BAR), gift of S.J. Dowell, GlaxoSmithKline; membrane fractions
T2 sequence (P29275 1-332): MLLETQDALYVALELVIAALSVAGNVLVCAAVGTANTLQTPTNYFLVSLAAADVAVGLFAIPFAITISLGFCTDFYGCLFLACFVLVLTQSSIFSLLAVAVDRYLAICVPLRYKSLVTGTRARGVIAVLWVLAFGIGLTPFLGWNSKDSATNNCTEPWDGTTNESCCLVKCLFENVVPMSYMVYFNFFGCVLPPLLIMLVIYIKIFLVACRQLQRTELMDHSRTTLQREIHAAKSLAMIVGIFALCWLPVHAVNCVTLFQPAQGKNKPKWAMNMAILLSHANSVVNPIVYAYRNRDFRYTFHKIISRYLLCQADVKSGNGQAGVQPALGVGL
Procedure: as §1, §2

hA3AR [1] = target: T3, hA3AR (Homo sapiens, UniProt P0DMS8); assay: Single-point radioligand displacement, [3H]PSB-11; conditions: 1 μM probe; CHO cell membranes; co-incubated with radioligand 30 min at 25 °C; mean of two experiments
T3 construct: expressed in transfected cells; host or cells: CHO cells (CHOhA3AR), gift of Prof; K.N. Klotz, University of Würzburg; used as membrane fractions or live cells
T3 sequence (P0DMS8 1-318): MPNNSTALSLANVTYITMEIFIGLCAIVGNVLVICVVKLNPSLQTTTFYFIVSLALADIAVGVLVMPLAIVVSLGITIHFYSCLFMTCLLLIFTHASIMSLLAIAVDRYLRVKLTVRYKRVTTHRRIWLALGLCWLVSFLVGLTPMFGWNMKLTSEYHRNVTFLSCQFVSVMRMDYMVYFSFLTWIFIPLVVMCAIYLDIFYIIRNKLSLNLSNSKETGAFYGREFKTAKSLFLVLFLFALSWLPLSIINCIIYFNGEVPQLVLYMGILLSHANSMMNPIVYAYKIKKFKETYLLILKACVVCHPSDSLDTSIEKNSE
Procedure: as §1, §2

hA3AR [2] = target: T3, hA3AR; assay: Full curve radioligand displacement assay on the adenosine A3 receptor, [3H]PSB-11; conditions: mean ± SEM, n=3; for apparent pKi (pre-0 h) / apparent pKi (pre-4 h): CHO-hA3AR membranes, 25 °C; for apparent pKi (pre-0 h): 0.5 h co-incubation of probe and radioligand, no pre-incubation; for apparent pKi (pre-4 h): 4 h pre-incubation with probe then 0.5 h co-incubation with radioligand; for fold change, ratio Ki(0 h)/Ki(4 h): hA3AR
Procedure: Membrane aliquots containing 15 μg of protein (CHOhA3AR) were resuspended in assay buffer (50 mM Tris–HCl, pH 8.0, 10 mM MgCl2, 1 mM EDTA, 0.01% CHAPS). The competing ligand (concentrations ranging from 0.1 to 1000 nM) was added and pre-incubated with the membrane fractions for either 0 or 4 h. The radioligand (10 nM [^3H]PSB-11) was then added and incubated with the samples in a total volume of 100 μL of assay buffer for 30 min at 25 °C. Nonspecific binding was determined in the presence of 100 μM NECA. Incubations were terminated by rapid vacuum filtration through prewetted 96-well GF/C filter plates using a PerkinElmer Filtermate harvester. Filters were subsequently washed 12 times with ice-cold wash buffer (50 mM Tris–HCl, pH 8.0, 10 mM MgCl2, 1 mM EDTA). The plates were dried at 55 °C, and MicroscintTM-20 cocktail (PerkinElmer) was added subsequently. After 3 h, the filter-bound radioactivity was determined using a Tri-Carb 2810TR Liquid Scintillation Analyzer (PerkinElmer).
[…]. Single point displacement values shown are mean percentages of two individual experiments performed in duplicate. All pKi values shown are mean values ± SEM of three individual experiments performed in duplicate. Statistical analysis was performed using a one-way ANOVA test with multiple comparisons (****p < 0.0001).

SMILES | % specific [3H]ZM241385 displacement, hA2AAR (human A2AAR (hA2AAR)) [%] | % specific [3H]PSB-603 displacement, hA2BAR (human A2BAR (hA2BAR)) [%] | % specific [3H]PSB-11 displacement, hA3AR (hA3AR [1]) [%] | apparent pKi (pre-0 h) (hA3AR [2]) | apparent pKi (pre-4 h) (hA3AR [2]) | fold change, ratio Ki(0 h)/Ki(4 h) (hA3AR [2])
C#CCN(CCCn1c(=O)n(CCC)c(=O)c2c1nc1cc(OC)ccn12)C(=O)c1ccc(S(=O)(=O)F)cc1 [compound 5, 4-((3-(8-Methoxy-2,4-dioxo-3-propyl-3,4-dihydropyrido[2,1-f]purin-1(2H)-yl)propyl)(prop-2-yn-1-yl)carbamoyl)benzenesulfonyl fluoride] | 0 | 10 | 95 | 7.55 ± 0.01 | 8.52 ± 0.05 ^d | 9.5 ± 1.0
C#CCOc1ccn2c(c1)nc1c2c(=O)n(CCC)c(=O)n1CCCNC(=O)c1ccc(S(=O)(=O)F)cc1 [compound 9, 4-((3-(2,4-Dioxo-8-(prop-2-yn-1-yloxy)-3-propyl-3,4-dihydropyrido[2,1-f]purin-1(2H)-yl)propyl)carbamoyl)benzenesulfonyl fluoride] | 7 | 1 | 95 | 7.27 ± 0.07 | 8.40 ± 0.03 ^d | 13.5 ± 1.2
